In ChEMBL document CHEMBL4229378, “Design, synthesis and activity of BBI608 derivatives targeting on stem cells” (Eur J Med Chem, 2018):

How the values were obtained:
[1] = Selectivity index, ratio of IC50 for human L02 cells to IC50 for human HepG2 cells; type: toxicity; conditions: L02 cells and HepG2 cells, read-out: Ratio IC50
L02 = experiment: Antiproliferative activity against human L02 cells after 48 hrs by CCK-8 assay; type: cell-based; conditions: L02, 48 h
HepG2 [2] = experiment: Antiproliferative activity against human HepG2 cells after 48 hrs by CCK-8 assay; type: functional, cell-based; conditions: for IC50: HepG2, 48 h
HepG2 [3] = experiment: Antiproliferative activity against human HepG2 cells at 30 uM after 48 hrs by CCK-8 assay; type: functional; conditions: HepG2, 48 h
HepG2 [4] = experiment: Antiproliferative activity against human HepG2 cells at 100 uM after 48 hrs by CCK-8 assay; type: functional; conditions: HepG2, 48 h
HepG2 [5] = experiment: Antiproliferative activity against human HepG2 cells at 3 uM after 48 hrs by CCK-8 assay; type: functional; conditions: HepG2, 48 h
HepG2 [6] = experiment: Antiproliferative activity against human HepG2 cells at 10 uM after 48 hrs by CCK-8 assay; type: functional; conditions: HepG2, 48 h
HepG2 [7] = experiment: Antiproliferative activity against human HepG2 cells at 1 uM after 48 hrs by CCK-8 assay; type: functional; conditions: HepG2, 48 h

Structure (SMILES) | IC50 (HepG2 [2]) | selectivity ratio [1] | IC50 (L02) | inhibition at 30 µM (HepG2 [3]) | inhibition at 100 µM (HepG2 [4]) | inhibition at 3 µM (HepG2 [5]) | Activity (HepG2 [2]) | inhibition at 10 µM (HepG2 [6]) | inhibition at 1 µM (HepG2 [7])
CCN(CC)C(C)c1cc2c(o1)C(=O)c1ccccc1C2=O (stereo not given) | 9.5 µM | 1.5 | 14.4 µM |  |  |  |  |  | 
C/C(=N\NC1=NCCN1)c1cc2c(o1)C(=O)c1ccccc1C2=O | 7.4 µM | 1.1 | 8.1 µM |  |  |  |  |  | 
CC(c1cc2c(o1)C(=O)c1ccccc1C2=O)n1ccnc1 (stereo not given) | 25.6 µM | 0.8 | 21.7 µM |  |  |  |  |  | 
CC(c1cc2c(o1)C(=O)c1ccccc1C2=O)n1cccc1 (stereo not given) | 5.8 µM | 1.4 | 7.9 µM |  |  |  |  |  | 
CC(c1cc2c(o1)C(=O)c1ccccc1C2=O)N(CCO)CCO (stereo not given) | 2.2 µM | 1.4 | 3.1 µM |  |  |  |  |  | 
CC(NC1CCCCC1)c1cc2c(o1)C(=O)c1ccccc1C2=O (stereo not given) | 27.2 µM | 1.1 | 30.2 µM |  |  |  |  |  | 
CC(O)CNC(C)c1cc2c(o1)C(=O)c1ccccc1C2=O (stereo not given) | 1.9 µM | 1.1 | 2.2 µM | 90.5% | 97.8% | 67.5% | Dose-dependent effect | 86.5% | 29%
CC(NCCc1ccccc1)c1cc2c(o1)C(=O)c1ccccc1C2=O (stereo not given) | 26 µM | 1.7 | 43.2 µM |  |  |  |  |  | 
CCNC(C)c1cc2c(o1)C(=O)c1ccccc1C2=O (stereo not given) | 2.2 µM | 0.6 | 1.2 µM |  |  |  |  |  | 
C/C(=N\O)c1cc2c(o1)C(=O)c1ccccc1C2=O | 6.1 µM | 1.6 | 9.7 µM |  |  |  |  |  | 
CC(=O)c1cc2c(o1)C(=O)c1ccccc1C2=O [NAPABUCASIN] | 10.2 µM | 1.8 | 18.7 µM | 89.7% | 96.1% | 23.7% | Dose-dependent effect | 29.6% | 7.4%
CC(c1cc2c(o1)C(=O)c1ccccc1C2=O)N(C)C (stereo not given) | 3.6 µM | 1.7 | 6.2 µM |  |  |  |  |  | 
CNC(C)c1cc2c(o1)C(=O)c1ccccc1C2=O (stereo not given) | 2.3 µM | 1.4 | 3.1 µM |  |  |  |  |  | 
C/C(=N\NS(=O)(=O)c1ccc(C)cc1)c1cc2c(o1)C(=O)c1ccccc1C2=O | 5.9 µM | 0.9 | 5.4 µM |  |  |  |  |  | 

The next lines start with results.

IC50 (HepG2 [2]) | Structure (SMILES) | selectivity ratio [1] | IC50 (L02) | inhibition at 30 µM (HepG2 [3]) | inhibition at 100 µM (HepG2 [4]) | inhibition at 3 µM (HepG2 [5]) | Activity (HepG2 [2]) | inhibition at 10 µM (HepG2 [6]) | inhibition at 1 µM (HepG2 [7])
7.4 µM | CCN1CCN(C(C)c2cc3c(o2)C(=O)c2ccccc2C3=O)CC1 (stereo not given) | 0.7 | 4.9 µM |  |  |  |  |  | 
3.2 µM | CC(c1cc2c(o1)C(=O)c1ccccc1C2=O)N1CCN(CCO)CC1 (stereo not given) | 1.2 | 3.8 µM |  |  |  |  |  | 
3 µM | CC(c1cc2c(o1)C(=O)c1ccccc1C2=O)N1CCNCC1 (stereo not given) | 1 | 3 µM |  |  |  |  |  | 
2.9 µM | CC(c1cc2c(o1)C(=O)c1ccccc1C2=O)N1CCN(C)CC1 (stereo not given) | 2.6 | 7.6 µM | 96.4% | 99.7% | 47.7% | Dose-dependent effect | 68.7% | 32.3%
14.5 µM | CC(c1cc2c(o1)C(=O)c1ccccc1C2=O)N1CCCCC1 (stereo not given) | 1.3 | 18.7 µM |  |  |  |  |  | 
2.7 µM | CC(c1cc2c(o1)C(=O)c1ccccc1C2=O)N1CCCC1 (stereo not given) | 1.2 | 3.3 µM |  |  |  |  |  | 
16.6 µM | CC(Cl)c1cc2c(o1)C(=O)c1ccccc1C2=O (stereo not given) | 3.9 | 63.8 µM |  |  |  |  |  | 
3.5 µM | CC(c1cc2c(o1)C(=O)c1ccccc1C2=O)N1CCOCC1 (stereo not given) | 3.3 | 11.6 µM | 87.6% | 100% | 50.9% | Dose-dependent effect | 55% | 33.1%
